Patent US20220227758A1, “IMIDAZOPYRIDINE COMPOUND AS IRAK4 INHIBITOR” (MEDSHINE DISCOVERY INC., priority 2019, published 2022)
pIC50: −log10 of the molar value.

Tests used:
human IRAK4 = molecular target: T1, human IRAK4 (Homo sapiens, UniProt Q9NWZ3); test: 33P-labeled kinase activity assay (in vitro enzymatic activity evaluation); type: biochemical
T1 construct: purchased Reaction Biology Corp
T1 sequence (Q9NWZ3 1-460): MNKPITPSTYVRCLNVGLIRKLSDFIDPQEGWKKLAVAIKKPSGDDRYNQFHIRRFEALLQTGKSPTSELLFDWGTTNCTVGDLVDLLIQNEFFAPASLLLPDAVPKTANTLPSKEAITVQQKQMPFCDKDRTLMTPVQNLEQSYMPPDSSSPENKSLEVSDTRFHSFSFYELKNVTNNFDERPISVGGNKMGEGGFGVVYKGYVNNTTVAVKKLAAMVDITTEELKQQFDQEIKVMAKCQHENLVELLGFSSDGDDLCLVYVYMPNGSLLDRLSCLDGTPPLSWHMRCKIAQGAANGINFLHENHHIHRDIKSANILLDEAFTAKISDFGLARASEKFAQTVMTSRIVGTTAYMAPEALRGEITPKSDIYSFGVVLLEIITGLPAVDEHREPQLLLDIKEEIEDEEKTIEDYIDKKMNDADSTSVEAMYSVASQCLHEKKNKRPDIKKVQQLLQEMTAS
Protocol: The inhibitory activity of the test compounds against human IRAK4 was evaluated by determining IC50 values in a ^33P-labeled kinase activity assay (Reaction Biology Corp).
Buffer conditions: 20 mM Hepes (pH 7.5), 10 mM MgCl2, 1 mM EGTA, 0.02% Brij35, 0.02 mg/mL BSA, 0.1 mM Na3VO4, 2 mM DTT, 1% DMSO.
Procedures: The test compound was dissolved in DMSO at room temperature to prepare a 10 mM solution for later use. The substrates were dissolved in freshly formulated buffers. The kinase was added, and mixture was stirred homogeneously. The DMSO solution containing the test compound was added to the above mixed reaction system by an acoustic technique (Echo 550). After 15 minutes of incubation, the reaction was started by adding ^33P-ATP. After 120 minutes of reaction at room temperature, the resulting solution was loaded on P81 ion exchange chromatography paper sheet (Whatman #3698-915). After repeated washings with 0.75% phosphoric acid solution, the radioactivity of the phosphorylated substrate residue on the paper sheet was measured. The kinase activity data are shown as a comparison of the kinase activity of the test compound and the kinase activity of the blank (DMSO only) and a curve was fitted using Prism4 software (GraphPad) to give IC50 values, with the experimental results shown in Table 5.

THP-1 cells = test: cells; conditions: Homo sapiens, THP-1, 18 h, read-out: THP-1/IC50
Protocol: TNF-α ELISA in THP-1 cells
THP-1 human acute […] leukemia cells were purchased from ATCC (Cat # TIB-202) and incubated in a5% CO2 incubator at 37° C. The medium was RPMI1640 (Gibco, Cat # 22400-105), the supplementary was 10% FBS (Gibco, Cat # 10091148); 1% PenStrep (Gibco, Cat # 15140); 0.05 mM 2-mercaptoethanol (Sigma, Cat # M6250).
TNF-α content in the cell culture supernatant was measured by a TNF-α Elisa kit. TNF-α was produced by stimulation of THP-1 cells with 150 ng/mL LPS (Sigma, Cat # L6529). Normal THP-1 cells in logarithmic phase were seeded in 96-well plates (Corning #3599) at a certain concentration (1×10^5/100 μL) and then incubated in an incubator. After two hours, 16.7 μL of test compound of different concentrations (8×final concentration) was added and the mixture was incubated in the incubator. After one hour, 16.7 μL of 1200 ng/mL LPS was added and the mixture was incubated in the incubator. After 18 h, the culture was centrifuged and the probe of the supernatant was collected. The TNF-α content was measured by a TNF-α Elisa kit. Finally, the OD signals (OD450-OD570) were read on an envision plate reader.
The OD450-OD570 signals were converted to percent inhibition.
Inhibition%=(ZPE−sample)/(ZPE−HPE)×100.
“HPE” represents the OD450-OD570 signal value of the control well without LPS-stimulated cells, and “ZPE” represents the OD450-OD570 signal value of the control well with LPS-stimulated cells.
IC50 values for compounds were calculated by XLFit in the Excel.
Equation:y=Bottom+(Top-Bottom)/(1+(IC50/X)^ HillSlope).

[1] = system: human B-cell lymphoma OCI-LY10 cells subcutaneous xenograft tumor; test: In vivo pharmacodynamic study in OCI-LY10 subcutaneous xenograft tumor mouse model; conditions: ibrutinib 10 mpk, WX005 50 mpk; for T/C value / TGI value: day 18 after start of administration, WX005 + ibrutinib 50+10 mpk
Protocol: The purpose of this experiment was to evaluate the efficacy of test drug WX005 on human B-cell lymphoma OCI-LY10 cell subcutaneous xenograft tumors in a CB17 SCID mouse model in vivo.
OCI-LY10 human B cell lymphoma cells, cultured in a 5% CO2 incubator at 37° C.
OCI-LY10 tumor cells were subcultured. 0.2 mL (1×10^7 cells) of OCI-LY10 cells (along with matrigel in a volume ratio of 1:1) was subcutaneously inoculated on the right back of each […], and the mice were administered in groups when the average tumor volume was 167 mm^3. Animals were monitored daily for health and death, and routine examinations include observation of the effect of tumor growth and drug treatment on the daily performance of the animals, such as behavioral activities, food and water intake, weight changes (twice weekly), tumor size (twice weekly for tumor volume), appearance signs, or other abnormal conditions.
The experimental indices were to investigate whether tumor growth was inhibited or delayed or the tumor was cured. The procedures comprised measuring tumor volume (TV), and calculating the tumor inhibiting therapeutic effect TGI (%) or relative tumor proliferation rate T/C (%) of the compound. TV=0.5a×b^2, where a and b represent the long diameter and short diameter of the tumor, respectively.
T/C%=TRTV/CRTV×100% (TRTV: RTV of treatment group; CRTV: RTV of negative control group). Relative tumor volume (RTV) was calculated based on the results of tumor measurement. The calculation formula was: RTV=Vt/V0, wherein Vo was the average tumor volume measured at the time of grouping and administration (i.e., d0), Vt was the average tumor volume at a certain measurement, and the data of TRTV and CRTV were obtained on the same day.

[2] = system: collagen-induced arthritis; test: In vivo efficacy assay of collagen-induced mouse arthritis; parameters: species or system DBA/1 mice; conditions: 100 mg/kg twice daily for 14 days, oral gavage
Protocol: The purpose of this experiment was to investigate the therapeutic effect of compound WX005 in a mouse model of collagen-induced arthritis.
Animals: male DBA/1 mice aged 6-8 weeks; supplier: Vital River.
Grouping: Among 39 DBA/1 mice, 5 mice were randomly selected as normal controls, and the other 34 were immunized. The day of the first immunization was recorded as Day 0. During modeling, DBA/1 mice were anesthetized with isoflurane and sensitized by injecting 50 microliters of prepared collagen emulsion (containing 200 micrograms of CII) subcutaneously on the tail (2-3 cm from the root of the tail). On Day 23, 100 microliters of 0.3 mg/mL LPS solution (containing 30 micrograms of LPS) was intraperitoneally injected. Mice in the normal group were not immunized.
On Day 26, when the average clinical score reached about 0.8, 24 mice with clinical scores of 0-1 were selected, and the mice were randomly grouped into 3 treatment groups of 8 according to the body weight and the score. […]
Clinical observation: the general health and body weight changes of DBA/1 mice were observed daily from 7 days before immunization to Day 23 after immunization (recorded once weekly). After Day 23, mice were observed daily for health, morbidity, and weight changes (recorded at least three times a week) until the end of assay. […]

[3] = system: lipopolysaccharide (LPS)-induced TNF-α secretion; test: Pharmacodynamic study of LPS-induced TNF-α secretion in SD rats; type: in vivo; conditions: oral
Protocol: SD rats were orally administered with a solvent, dexamethasone (DEX, 0.5 mg/kg) as positive control, and the test compound, and were intraperitoneally injected with LPS (1 mg/kg) 0.5 hours after the administration. Animals were euthanized with CO2 2 h after LPS injection. Cardiac blood was collected into EDTA-K2 vacutainers, and a part of the anticoagulated blood was centrifuged and the plasma was frozen at −80° C.
Frozen plasma was thawed at room temperature and the concentration of TNF-α in the plasma was measured using ELISA kit.
The experimental data were expressed using mean±SEM, and TNF-α levels were analyzed by One-way ANOVA. Significant differences were considered for p<0.05.

Row | Structure (SMILES) | pIC50 (human IRAK4) | other results
1 | CC(C)(O)CCc1cn2cc(NC(=O)c3cccc(C(F)(F)F)n3)c(N3CCC(C)(O)CC3)cc2n1 [WX015] | 9.15 | pIC50 (THP-1 cells): 6.70
2 | C=CC(=O)N1CCC[C@@H](n2nc(-c3ccc(Oc4ccccc4)cc3)c3c(N)ncnc32)C1 [ibrutinib, reference compound] | – | T/C value [1]: 39%; TGI value [1]: 85%
3 | CC(=O)N1CCN(c2cc3nc(CCC(C)(C)O)cn3cc2NC(=O)c2cccc(C(F)(F)F)n2)CC1 [WX004] | 8.34 | –
4 | CC(C)(O)CCc1cn2cc(NC(=O)c3cccc(C(F)(F)F)n3)c(C3CC3)cc2n1 [WX013] | 8.44 | –
5 | CC(C)(O)CCc1cn2cc(NC(=O)c3cccc(C(F)(F)F)n3)c(C(C)(C)O)cc2n1 [WX002] | 9.40 | pIC50 (THP-1 cells): 7.27
6 | CCOc1cc2nc(CCC(C)(C)O)cn2cc1NC(=O)c1cccc(C(F)(F)F)n1 [WX014] | 8.77 | –
7 | CC(C)(O)CCc1cn2cc(NC(=O)c3cccc(C(F)(F)F)n3)c(N3CCOCC3)cc2n1 [WX001] | 8.66 | –
8 | CC(C)(O)CCc1cn2cc(NC(=O)c3cccc(C(F)(F)F)n3)c(N3CCNCC3)cc2n1 [WX008] | 8.82 | –
9 | CC(C)(O)CCc1cn2cc(NC(=O)c3cccc(C(F)(F)F)n3)c(N3CCC(CO)CC3)cc2n1 [WX007] | 9.05 | –
10 | CC(C)(O)CCc1cn2cc(NC(=O)c3cccc(C(F)(F)F)n3)c(N3CCCC(O)C3)cc2n1 (stereo not shown) [WX006] | 8.42 | –
11 | CC(C)(O)CCc1cn2cc(NC(=O)c3cccc(C(F)(F)F)n3)c(N3CCC(O)CC3)cc2n1 [WX005] | 8.89 | pIC50 (THP-1 cells): 6.94; body weight of the mice [2]: increased steadily; clinical score of arthritis (efficacy) [2]: excellent efficacy; inhibitory effect on LPS-induced TNF-α secretion (plasma TNF-α) ([3]; LPS 1 mg/kg i.p. 0.5 h after administration, plasma 2 h after LPS): significant inhibitory effect; potency on LPS-induced TNF-α secretion compared with dexamethasone ([3]; WX005 30 mpk vs dexamethasone (DEX) 0.5 mpk): potency equivalent to that of dexamethasone; dose-response of inhibition of LPS-induced TNF-α secretion ([3]; doses 3 mpk, 10 mpk, 30 mpk): clear dose-response relationship; tolerability (body weight, abnormality) in tumor-bearing mice ([1]; 18 days of treatment): good tolerability in animals; T/C value [1]: 53%; TGI value [1]: 66%
12 | COC(=O)N1CCN(c2cc3nc(CCC(C)(C)O)cn3cc2NC(=O)c2cccc(C(F)(F)F)n2)CC1 [WX010] | 8.34 | –
13 | CC(C)(O)CCc1cn2cc(NC(=O)c3cccc(C(F)(F)F)n3)c(N3CCCCC3)cc2n1 [WX003] | 8.92 | –

Now from value to compound, other results behind:

Row | pIC50 (human IRAK4) | Structure (SMILES) | other results
14 | 8.15 | O=C(O)CCc1cn2cc(NC(=O)c3cccc(C(F)(F)F)n3)c(N3CCC(CO)CC3)cc2n1 [WX021] | –
15 | 8.92 | CC(C)(O)CCc1cn2cc(NC(=O)c3cccc(C(F)(F)F)n3)c(N3CCC(C(N)=O)CC3)cc2n1 [WX016] | pIC50 (THP-1 cells): 6.74
16 | 9.30 | CC1(O)CCN(c2cc3nc(CCS(C)(=O)=O)cn3cc2NC(=O)c2cccc(C(F)(F)F)n2)CC1 [WX025] | –
17 | 7.71 | NC(=O)C1CCN(c2cc3nc(CCC(=O)O)cn3cc2NC(=O)c2cccc(C(F)(F)F)n2)CC1 [WX019] | –
18 | 8.89 | CS(=O)(=O)CCc1cn2cc(NC(=O)c3cccc(C(F)(F)F)n3)c(N3CCC(O)CC3)cc2n1 [WX023] | –
19 | 8.01 | CC1(O)CCN(c2cc3nc(CCC(=O)O)cn3cc2NC(=O)c2cccc(C(F)(F)F)n2)CC1 [WX018] | –
20 | 8.89 | CC(C)(O)CCc1cn2cc(NC(=O)c3cccc(C(F)(F)F)n3)c(N3CCC(CN)CC3)cc2n1 [WX017] | –
21 | 7.69 | NCC1CCN(c2cc3nc(CCC(=O)O)cn3cc2NC(=O)c2cccc(C(F)(F)F)n2)CC1 [WX020] | –
